{"source": "ChEMBL document CHEMBL4813910", "about": "“Curse or Cure? A Perspective on the Developability of Aldehydes as Active Pharmaceutical Ingredients” (J Med Chem, 2020)", "key": {"[1]": {"experiment": "Bioavailability in human at 10.3 mg", "assay_type": "ADME, organism-based", "conditions": "in vivo"}, "[2]": {"experiment": "Drug excretion in human urine at 0.7 mg/kg, po measured after 8 to 24 hrs", "assay_type": "ADME, organism-based", "conditions": "time 8-24 hrs, read-out: Drug excretion"}, "[3]": {"experiment": "Oral bioavailability in human at 0.7 mg/kg", "assay_type": "ADME, organism-based", "conditions": "in vivo"}, "[4]": {"experiment": "Half life in human at 0.7 mg/kg, po", "assay_type": "ADME, organism-based", "conditions": "in vivo"}, "[5]": {"experiment": "Dermal bioavailability in human at 0.46 mg/kg", "assay_type": "ADME, organism-based", "conditions": "in vivo, topical or ocular"}, "[6]": {"experiment": "Half life in human at 0.03 mg/kg, po", "assay_type": "ADME, organism-based", "conditions": "in vivo"}, "[7]": {"experiment": "Oral bioavailability in human at 0.03 mg/kg", "assay_type": "ADME, organism-based", "conditions": "in vivo"}, "[8]": {"experiment": "Tmax in human at 0.03 mg/kg, po", "assay_type": "ADME, organism-based", "conditions": "in vivo"}, "[9]": {"experiment": "Drug excretion in human urine at 0.46 mg/kg dosed-dermally measured for 24 hrs", "assay_type": "ADME, organism-based", "conditions": "topical or ocular, read-out: Drug excretion"}, "[10]": {"experiment": "Drug excretion in human urine measured for 24 hrs", "assay_type": "ADME, tissue-based", "conditions": "read-out: Drug excretion"}, "[11]": {"target": "Serine/threonine-protein kinase/endoribonuclease IRE1 (Mus musculus, UniProt Q9EQY0)", "sequence (Q9EQY0 whole entry)": "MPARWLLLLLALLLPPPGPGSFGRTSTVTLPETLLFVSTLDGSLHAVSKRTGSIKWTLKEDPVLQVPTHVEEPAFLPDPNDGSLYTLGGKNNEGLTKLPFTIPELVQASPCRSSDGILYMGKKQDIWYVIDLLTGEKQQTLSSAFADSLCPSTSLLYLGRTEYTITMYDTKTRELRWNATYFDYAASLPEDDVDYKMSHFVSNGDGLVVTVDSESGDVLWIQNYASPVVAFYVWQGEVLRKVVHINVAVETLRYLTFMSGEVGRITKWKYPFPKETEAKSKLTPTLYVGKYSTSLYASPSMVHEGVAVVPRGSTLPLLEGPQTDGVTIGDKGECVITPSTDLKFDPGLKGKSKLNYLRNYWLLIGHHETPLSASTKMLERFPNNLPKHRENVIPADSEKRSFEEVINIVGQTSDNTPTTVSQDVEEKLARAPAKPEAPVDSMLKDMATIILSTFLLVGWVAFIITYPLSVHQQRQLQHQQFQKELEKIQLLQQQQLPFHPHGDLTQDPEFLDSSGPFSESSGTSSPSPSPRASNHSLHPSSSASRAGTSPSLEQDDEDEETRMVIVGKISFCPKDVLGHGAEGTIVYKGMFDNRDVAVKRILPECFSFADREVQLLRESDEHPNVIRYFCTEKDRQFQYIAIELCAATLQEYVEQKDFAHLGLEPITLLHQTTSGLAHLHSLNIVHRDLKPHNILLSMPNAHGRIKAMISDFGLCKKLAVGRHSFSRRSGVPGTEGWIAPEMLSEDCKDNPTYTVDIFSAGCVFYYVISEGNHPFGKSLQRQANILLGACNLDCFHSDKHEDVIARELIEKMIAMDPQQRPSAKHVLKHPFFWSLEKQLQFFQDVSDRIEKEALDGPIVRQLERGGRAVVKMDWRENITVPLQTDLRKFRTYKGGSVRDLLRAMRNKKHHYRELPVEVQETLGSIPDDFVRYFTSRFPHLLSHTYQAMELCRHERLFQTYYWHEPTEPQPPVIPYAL", "experiment": "Inhibition of mouse IRE1 assessed as reduction in XBP1 splicing using 5'-Alexa Fluor 647-CAUGUCCGCAGCGCAUG-BHQ1-3' as substrate preincubated for 30 mins followed by substrate addition by FRET assay"}, "[12]": {"experiment": "Protein binding in human plasma incubated for 240 mins by equilibrium dialysis", "assay_type": "ADME, cell-free", "conditions": "read-out: PPB (converted)"}, "[13]": {"experiment": "Drug metabolism in human assessed as AUC (0 to infinity) of acid metabolite at 0.25%, OU administered once daily for 7 days", "assay_type": "ADME", "design": "time 7 day, dose 0.25 %", "conditions": "topical_or_ocular, 168 h"}, "[14]": {"experiment": "Drug metabolism in human assessed as half life of acid metabolite at 0.25%, OU administered once daily for 7 days", "assay_type": "ADME", "conditions": "topical_or_ocular, 168 h, time 7 day"}, "[15]": {"experiment": "Cmax in human at 0.25%, OU administered once daily for 7 days", "assay_type": "ADME", "design": "dose 0.25 %, time 7 day", "conditions": "topical or ocular"}, "[16]": {"experiment": "Drug metabolism in human assessed as Cmax of acid metabolite at 0.25%, OU administered once daily for 7 days", "assay_type": "ADME", "design": "dose 0.25 %, time 7 day", "conditions": "topical_or_ocular, 168 h"}, "[17]": {"experiment": "Drug metabolism in human assessed as Tmax of acid metabolite at 0.25%, OU administered once daily for 7 days", "assay_type": "ADME", "conditions": "topical_or_ocular, 168 h, time 7 day"}, "[18]": {"experiment": "Half life in human liver supernatant", "assay_type": "ADME, subcellular, Supernatent"}, "[19]": {"experiment": "Tmax in human at 0.25%, OU administered once daily for 7 days", "assay_type": "ADME", "conditions": "topical or ocular, time 7 day"}, "[20]": {"experiment": "Half life in human at 0.25%, OU administered once daily for 7 days", "assay_type": "ADME", "conditions": "topical or ocular, time 7 day"}, "[21]": {"experiment": "Half life in mouse plasma at 5 ug/ml incubated for 1 to 24 hrs by LC/MS/MS method", "assay_type": "ADME, cell-free", "conditions": "time 1-24 hrs, dose 5 µg/ml"}, "[22]": {"experiment": "Half life in human plasma at 5 ug/ml incubated for 1 to 24 hrs by LC/MS/MS method", "assay_type": "ADME, cell-free", "conditions": "time 1-24 hrs, dose 5 µg/ml"}, "[23]": {"experiment": "Half life in dog plasma at 5 ug/ml incubated for 1 to 24 hrs by LC/MS/MS method", "assay_type": "ADME, cell-free, Canis lupus familiaris", "conditions": "time 1-24 hrs, dose 5 µg/ml"}, "[24]": {"experiment": "Cmax in mouse at 3 mg/kg, po", "assay_type": "ADME, organism-based", "design": "route oral, dose 3 mg/kg", "conditions": "in vivo"}, "[25]": {"experiment": "AUC (0 to 24 hrs) in mouse at 3 mg/kg, po", "assay_type": "ADME, organism-based", "design": "time < 24 hr, route oral, dose 3 mg/kg", "conditions": "in vivo"}, "[26]": {"experiment": "Clearance in mouse at 1 mg/kg, iv", "assay_type": "ADME, organism-based", "conditions": "in vivo"}, "[27]": {"experiment": "Tmax in mouse at 3 mg/kg, po", "assay_type": "ADME, organism-based", "conditions": "in vivo"}, "[28]": {"experiment": "AUC (0 to 24 hrs) in mouse at 1 mg/kg, iv", "assay_type": "ADME, organism-based", "design": "time < 24 hr, route intravenous, dose 1 mg/kg", "conditions": "in vivo"}, "[29]": {"experiment": "Volume of distribution at steady state in mouse at 1 mg/kg, iv", "assay_type": "ADME, organism-based", "conditions": "in vivo, read-out: Vdss"}, "[30]": {"experiment": "Oral bioavailability in mouse at 3 mg/kg", "assay_type": "ADME, organism-based", "conditions": "in vivo"}, "[31]": {"experiment": "Half life in mouse at 1 mg/kg, iv", "assay_type": "ADME, organism-based", "conditions": "in vivo"}}, "data": [{"smiles": "O=C/C=C/c1ccccc1", "values": [{"measurement": "bioavailability", "setting": "[1]", "value": 9, "unit": "%"}, {"measurement": "dose excreted", "setting": "[2]", "value": 100, "unit": "%"}, {"measurement": "bioavailability", "setting": "[3]", "value": 100, "unit": "%"}, {"measurement": "half-life", "setting": "[4]", "value": "< 4", "unit": "h"}]}, {"smiles": "CC(CC=O)CCCC(C)(C)O", "note": "(configuration not stated)", "values": [{"measurement": "bioavailability", "setting": "[5]", "value": 5, "unit": "%"}, {"measurement": "half-life", "setting": "[6]", "value": 3.28, "unit": "h"}, {"measurement": "bioavailability", "setting": "[7]", "value": 100, "unit": "%"}, {"measurement": "Tmax", "setting": "[8]", "value": 2.7, "unit": "h"}, {"measurement": "dose excreted at 24 h", "setting": "[9]", "value": 90, "unit": "%"}, {"measurement": "dose excreted at 24 h", "setting": "[10]", "value": 94, "unit": "%"}]}, {"smiles": "COc1cc2c(C)c(CC(=O)N3CCOCC3)c(=O)oc2c(C=O)c1O", "values": [{"measurement": "IC50", "setting": "[11]", "value": "< 0.1", "unit": "µM"}]}, {"smiles": "CN1CCC(=C2c3ccccc3CCn3c(C(=O)O)cnc32)CC1", "values": [{"measurement": "fraction unbound at 4 h", "setting": "[12]", "value": 0.37}]}, {"smiles": "CN1CCC(=C2c3ccccc3CCn3c(C=O)cnc32)CC1", "note": "[ALCAFTADINE]", "values": [{"measurement": "AUC", "setting": "[13]", "value": 0.0087, "unit": "µM·h"}, {"measurement": "t1/2", "setting": "[14]", "value": 2, "unit": "h"}, {"measurement": "fraction unbound at 4 h", "setting": "[12]", "value": 0.61}, {"measurement": "Cmax", "setting": "[15]", "value": 0.15, "unit": "nM"}, {"measurement": "Cmax", "setting": "[16]", "value": 6, "unit": "nM"}, {"measurement": "Tmax", "setting": "[17]", "value": 1.05, "unit": "h"}, {"measurement": "half-life", "setting": "[18]", "value": "< 0.25", "unit": "h"}, {"measurement": "Tmax", "setting": "[19]", "value": 0.25, "unit": "h"}, {"measurement": "half-life", "setting": "[20]", "value": 0.4, "unit": "h"}]}, {"smiles": "Cc1cc2c(C(C)C)c(O)c(O)cc2c(O)c1-c1c(C)cc2c(C(C)C)c(O)c(O)cc2c1O", "note": "[APOGOSSYPOL]", "values": [{"measurement": "half-life at 5 ug/ml", "setting": "[21]", "value": "< 1", "unit": "h"}, {"measurement": "half-life at 5 ug/ml", "setting": "[22]", "value": "< 1", "unit": "h"}, {"measurement": "half-life at 5 ug/ml", "setting": "[23]", "value": "< 1", "unit": "h"}]}, {"smiles": "COCCNc1cc(NC(=O)N2CCCc3cc(CN4CCN(C)CC4=O)c(C=O)nc32)ncc1C#N", "note": "[FGF401]", "values": [{"measurement": "Cmax", "setting": "[24]", "value": 200, "unit": "nM"}, {"measurement": "AUC", "setting": "[25]", "value": 0.25, "unit": "µM·h"}, {"measurement": "clearance", "setting": "[26]", "value": 28, "unit": "mL/min/kg"}, {"measurement": "Tmax", "setting": "[27]", "value": 2, "unit": "h"}, {"measurement": "AUC", "setting": "[28]", "value": 1.16, "unit": "µM·h"}, {"measurement": "Vd", "setting": "[29]", "value": 2.3, "unit": "L/kg"}, {"measurement": "F", "setting": "[30]", "value": 21, "unit": "%"}, {"measurement": "half-life", "setting": "[31]", "value": 1.4, "unit": "h"}]}]}
